From PMC10041525, “New Dual Inhibitors of Bacterial Topoisomerases with Broad-Spectrum Antibacterial Activity and In Vivo Efficacy against Vancomycin-Intermediate Staphylococcus aureus” (Journal of Medicinal Chemistry, 2023)
Values after ≈ are worked out from the molar mass of the structure shown. Values joined by “and” are separate entries in the source; they are usually repeats but may differ in a detail not shown here. Equal entries are not always repeated. Where two headings read alike, the source gives them in different places.

Legend:
S. pneumoniae ATCC 49619 [1] = test system: S. pneumoniae ATCC 49619; design: method as in earlier work; details: QC range for S. pneumoniae ATCC 49619, ref CLSI; cited from earlier work
E. faecalis ATCC 29212 [2] = test system: E. faecalis ATCC 29212; design: method as in earlier work; details: QC range for E. faecalis ATCC 29212, ref CLSI; cited from earlier work
E. faecalis ATCC 29212 [3] = assay: IHMA QC MIC; assay type: cell-based
Excerpt: (§1) Supplement jm2c01905_si_004.xlsx, sheet "QC" | column: MIC [µg/mL]

H. influenzae ATCC 49247 = assay: IHMA QC MIC; assay type: cell-based
Excerpt: as §1

S. pneumoniae ATCC 49619 [4] = assay: IHMA QC MIC; assay type: cell-based
Excerpt: as §1

H. influenzae ATCC 49766 = assay: IHMA QC MIC; assay type: cell-based
Excerpt: as §1

S. pneumoniae (n = 12) = assay: MIC broth microdilution at IHMA Europe; assay type: cell-based; details: for MIC: Streptococcus pneumoniae
E. coli ATCC 25922 = assay: IHMA QC MIC; assay type: cell-based
[5] = test system: Haemophilus influenzae (n = 14); assay: MIC broth microdilution at IHMA Europe; assay type: cell-based, H. influenzae; details: for MIC: Haemophilus influenzae
E. faecium (n = 13) = assay: MIC broth microdilution at IHMA Europe; assay type: cell-based; details: Enterococcus faecium
P. aeruginosa ATCC 27853 = assay: IHMA QC MIC; assay type: cell-based
A. baumannii DNA gyrase = A. baumannii DNA gyrase (Acinetobacter baumannii, UniProt A0ABX6CA01); assay: gel-based supercoiling assay; assay type: biochemical
Method: In all experiments, the activity of the
enzymes was determined prior to the testing of the compound and 1 unit (U) was defined as the
amount of enzyme required to just fully supercoil or decatenate the substrate. This amount of
enzyme was initially used in determination of control inhibitor activity. These experiments were
performed in duplicate. […] The final DMSO
concentration was 1% for all assays. All measurements were performed in quadruplicates. The
condition for each reaction were as follows:
− S. aureus gyrase supercoiling assay
1 U of S. aureus gyrase was incubated with 0.5 µg of relaxed pBR322 DNA in a 30 µL reaction at
magnesium acetate, 10 mM DTT, 2 mM ATP, 500 mM potassium glutamate and 0.05 mg/mL
− S. aureus topo IV decatenation assay
1 U of S. aureus topo IV was incubated with 20 µg kDNA in a 30 µL reaction at 37 °C for 30
mM ATP, 350 mM potassium glutamate and 0.05 mg/mL albumin.
− A. baumannii gyrase supercoiling assay
1 U of A. baumannii gyrase was incubated with 0.5 µg of relaxed pBR322 DNA in a 30 µL reaction
blue), before being loaded on a 1.0% TAE gel run at 80V for 2 hours. Bands were visualised by
ethidium bromide staining for 20 minutes and destaining for 20 minutes. Gels were scanned using
documentation equipment (GeneGenius, Syngene, Cambridge, UK) and % inhibition levels were
measured by determining the relative fluorescence of the supercoiled band using gel scanning
software. […]

[6] = test system: S. aureus (MRSA) ATCC 43300; assay: MIC broth microdilution (CLSI); assay type: cell-based; details: Staphylococcus aureus
Method in brief: (§2)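 Growth inhibition is scored by OD600 after 18 h at 37 °C with shaking. The MIC is taken where the average OD600 increase across three replicates is under 1.5 times the background increase. Inocula are 5 × 10^4 cells per 100 μL in cation-adjusted MHBII, following CLSI serial dilution.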

[7] = test system: S. aureus (VISA) ATCC 700699; assay: MIC broth microdilution (CLSI); assay type: cell-based; details: Staphylococcus aureus; read-out: MIC
Method in brief: as §2

Sequence of A. baumannii DNA gyrase (A0ABX6CA01 1-822): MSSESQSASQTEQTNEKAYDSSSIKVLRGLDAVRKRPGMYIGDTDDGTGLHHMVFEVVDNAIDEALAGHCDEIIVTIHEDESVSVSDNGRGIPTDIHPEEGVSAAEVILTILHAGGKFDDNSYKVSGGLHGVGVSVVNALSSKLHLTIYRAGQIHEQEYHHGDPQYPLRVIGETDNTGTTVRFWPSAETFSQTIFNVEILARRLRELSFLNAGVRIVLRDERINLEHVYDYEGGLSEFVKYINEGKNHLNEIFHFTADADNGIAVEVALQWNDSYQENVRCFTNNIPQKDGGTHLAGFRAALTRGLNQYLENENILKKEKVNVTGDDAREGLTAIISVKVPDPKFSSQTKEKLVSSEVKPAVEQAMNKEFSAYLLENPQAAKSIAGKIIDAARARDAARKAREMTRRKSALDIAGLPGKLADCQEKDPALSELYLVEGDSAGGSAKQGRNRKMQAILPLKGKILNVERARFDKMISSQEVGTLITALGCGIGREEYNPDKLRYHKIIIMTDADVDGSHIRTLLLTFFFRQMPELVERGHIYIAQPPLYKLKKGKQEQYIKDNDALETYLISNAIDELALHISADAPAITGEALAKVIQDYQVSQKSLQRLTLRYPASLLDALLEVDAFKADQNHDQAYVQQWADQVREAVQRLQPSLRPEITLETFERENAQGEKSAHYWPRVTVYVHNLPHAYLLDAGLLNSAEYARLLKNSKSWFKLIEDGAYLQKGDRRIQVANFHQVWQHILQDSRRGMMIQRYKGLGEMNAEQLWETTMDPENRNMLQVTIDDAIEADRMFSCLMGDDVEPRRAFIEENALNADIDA
Sequence of A. baumannii DNA gyrase (A0ABX6CII0 1-904 partner): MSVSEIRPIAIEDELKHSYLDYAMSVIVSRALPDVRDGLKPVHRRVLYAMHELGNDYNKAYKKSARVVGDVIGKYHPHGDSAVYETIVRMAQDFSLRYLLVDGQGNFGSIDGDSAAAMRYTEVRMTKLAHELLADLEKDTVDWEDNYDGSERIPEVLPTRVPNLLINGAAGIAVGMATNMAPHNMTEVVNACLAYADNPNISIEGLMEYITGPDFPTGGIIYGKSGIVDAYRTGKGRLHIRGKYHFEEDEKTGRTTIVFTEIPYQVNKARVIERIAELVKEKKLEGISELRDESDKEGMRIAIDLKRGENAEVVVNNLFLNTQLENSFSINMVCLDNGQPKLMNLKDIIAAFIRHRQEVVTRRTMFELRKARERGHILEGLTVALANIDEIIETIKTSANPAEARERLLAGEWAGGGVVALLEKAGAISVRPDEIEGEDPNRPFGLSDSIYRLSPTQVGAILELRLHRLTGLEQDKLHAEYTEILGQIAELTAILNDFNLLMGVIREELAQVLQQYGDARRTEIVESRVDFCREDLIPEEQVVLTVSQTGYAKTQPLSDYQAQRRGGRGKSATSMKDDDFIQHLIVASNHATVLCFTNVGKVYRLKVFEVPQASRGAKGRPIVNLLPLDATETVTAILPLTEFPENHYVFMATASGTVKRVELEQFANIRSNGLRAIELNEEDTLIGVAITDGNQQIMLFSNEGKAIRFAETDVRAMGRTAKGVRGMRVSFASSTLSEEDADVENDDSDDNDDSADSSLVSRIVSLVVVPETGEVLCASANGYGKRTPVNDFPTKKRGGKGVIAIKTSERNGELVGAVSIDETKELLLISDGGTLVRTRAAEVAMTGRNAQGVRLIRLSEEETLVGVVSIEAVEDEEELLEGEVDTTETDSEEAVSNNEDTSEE

Which results are given for `CN[C@H](CC(C)C)C(=O)N[C@H]1C(=O)N[C@@H](CC(N)=O)C(=O)N[C@H]2C(=O)N[C@H]3C(=O)N[C@H](C(=O)N[C@H](C(=O)O)c4cc(O)cc(O)c4-c4cc3ccc4O)[C@H](O)c3ccc(c(Cl)c3)Oc3cc2cc(c3O[C@@H]2O[C@H](CO)[C@@H](O)[C@H](O)[C@H]2O[C@H]2C[C@](C)(N)[C@H](O)[C@H](C)O2)Oc2ccc(cc2Cl)[C@H]1O` [Vancomycin, vancomycin]?
MIC, CLSI Range (S. pneumoniae ATCC 49619 [1]): 0,12 - 0,5 µg/mL; MIC, CLSI Range (E. faecalis ATCC 29212 [2]): 1 to 4 µg/mL; MIC (E. faecalis ATCC 29212 [3]; Enterococcus faecalis, ATCC29212): 2 µg/mL (≈ 1.38 µM); MIC (E. faecalis ATCC 29212 [3]; QC strain E. faecalis ATCC 29212, test date 2021-11-26): 2 µg/mL (≈ 1.38 µM); MIC (H. influenzae ATCC 49247; Haemophilus influenzae, ATCC49247): > 32 µg/mL; MIC (H. influenzae ATCC 49247; QC strain H. influenzae ATCC 49247, test date 2021-11-26): >32 µg/mL; MIC (S. pneumoniae ATCC 49619 [4]; QC strain S. pneumoniae ATCC 49619, test date 2021-11-26): 0.12 µg/mL (≈ 0.0828 µM); MIC (S. pneumoniae ATCC 49619 [4]; Streptococcus pneumoniae, ATCC49619): 0.12 µg/mL (≈ 0.0828 µM); MIC (H. influenzae ATCC 49766; Haemophilus influenzae, ATCC49766): > 32 µg/mL; MIC (H. influenzae ATCC 49766; QC strain H. influenzae ATCC 49766, test date 2021-11-26): >32 µg/mL; No. of isolates at MIC (S. pneumoniae (n = 12)): 5 and 6; Cumulative % at MIC (S. pneumoniae (n = 12); MIC 1 µg/mL): 100.0%; No. of isolates at MIC (S. pneumoniae (n = 12); MIC 1 µg/mL): 1; MIC (S. pneumoniae (n = 12); S. pneumoniae IHMA N° 1775387): 0.25 µg/mL (≈ 0.173 µM); MIC (S. pneumoniae (n = 12); S. pneumoniae IHMA N° 1776057): 0.25 µg/mL (≈ 0.173 µM); MIC (S. pneumoniae (n = 12); S. pneumoniae IHMA N° 1785617): 0.12 µg/mL (≈ 0.0828 µM); MIC (S. pneumoniae (n = 12); S. pneumoniae IHMA N° 1800765): 0.12 µg/mL (≈ 0.0828 µM); MIC (S. pneumoniae (n = 12); S. pneumoniae IHMA N° 1811259): 0.12 µg/mL (≈ 0.0828 µM); MIC (S. pneumoniae (n = 12); S. pneumoniae IHMA N° 1831562): 0.25 µg/mL (≈ 0.173 µM); MIC (S. pneumoniae (n = 12); S. pneumoniae IHMA N° 1902609): 0.25 µg/mL (≈ 0.173 µM); MIC (S. pneumoniae (n = 12); S. pneumoniae IHMA N° 1979675): 0.25 µg/mL (≈ 0.173 µM); MIC (S. pneumoniae (n = 12); S. pneumoniae IHMA N° 1991963): 1 µg/mL (≈ 0.69 µM); MIC (S. pneumoniae (n = 12); S. pneumoniae IHMA N° 2057487): 0.12 µg/mL (≈ 0.0828 µM); MIC (S. pneumoniae (n = 12); S. pneumoniae IHMA N° 2073087): 0.25 µg/mL (≈ 0.173 µM); MIC (S. pneumoniae (n = 12); S. pneumoniae IHMA N° 2117109): 0.12 µg/mL (≈ 0.0828 µM); MIC (E. coli ATCC 25922; Escherichia coli, ATCC25922): > 32 µg/mL; MIC (E. coli ATCC 25922; QC strain E. coli ATCC 25922, test date 2021-11-26): >32 µg/mL; No. of isolates at MIC [5]: 5 and 9; MIC ([5]; H. influenzae IHMA N° 1227715): > 32 µg/mL; MIC ([5]; H. influenzae IHMA N° 1241620): > 32 µg/mL; MIC ([5]; H. influenzae IHMA N° 1244149): 32 µg/mL (≈ 22.1 µM); MIC ([5]; H. influenzae IHMA N° 1249803): > 32 µg/mL; MIC ([5]; H. influenzae IHMA N° 1254355): 32 µg/mL (≈ 22.1 µM); MIC ([5]; H. influenzae IHMA N° 1258580): > 32 µg/mL; MIC ([5]; H. influenzae IHMA N° 1262734): 32 µg/mL (≈ 22.1 µM); MIC ([5]; H. influenzae IHMA N° 1272723): > 32 µg/mL; MIC ([5]; H. influenzae IHMA N° 1286846): > 32 µg/mL; MIC ([5]; H. influenzae IHMA N° 1337530): > 32 µg/mL; MIC ([5]; H. influenzae IHMA N° 1440085): > 32 µg/mL; MIC ([5]; H. influenzae IHMA N° 1479509): 32 µg/mL (≈ 22.1 µM); MIC ([5]; H. influenzae IHMA N° 1952952): > 32 µg/mL; MIC ([5]; H. influenzae IHMA N° 2047461): 32 µg/mL (≈ 22.1 µM); MIC (E. faecium (n = 13); E. faecium IHMA N° 1764866): 16 µg/mL (≈ 11 µM); MIC (E. faecium (n = 13); E. faecium IHMA N° 1765436): 16 µg/mL (≈ 11 µM); MIC (E. faecium (n = 13); E. faecium IHMA N° 1765746): > 32 µg/mL; MIC (E. faecium (n = 13); E. faecium IHMA N° 1893573): 32 µg/mL (≈ 22.1 µM); MIC (E. faecium (n = 13); E. faecium IHMA N° 1893846): > 32 µg/mL; MIC (E. faecium (n = 13); E. faecium IHMA N° 1893942): 32 µg/mL (≈ 22.1 µM); MIC (E. faecium (n = 13); E. faecium IHMA N° 1894055): > 32 µg/mL; MIC (E. faecium (n = 13); E. faecium IHMA N° 1897027): > 32 µg/mL; MIC (E. faecium (n = 13); E. faecium IHMA N° 1897101): > 32 µg/mL; MIC (E. faecium (n = 13); E. faecium IHMA N° 1904592): > 32 µg/mL; MIC (E. faecium (n = 13); E. faecium IHMA N° 2075051): 16 µg/mL (≈ 11 µM); MIC (E. faecium (n = 13); E. faecium IHMA N° 2077718): > 32 µg/mL; MIC (E. faecium (n = 13); E. faecium IHMA N° 2083787): > 32 µg/mL; MIC (P. aeruginosa ATCC 27853; Pseudomonas aeruginosa, ATCC27853): > 32 µg/mL; MIC (P. aeruginosa ATCC 27853; QC strain P. aeruginosa ATCC 27853, test date 2021-11-26): >32 µg/mL

With `CO[C@@H]1[C@@H](OC(N)=O)[C@@H](O)[C@H](Oc2ccc3c(O)c(NC(=O)c4ccc(O)c(CC=C(C)C)c4)c(=O)oc3c2C)OC1(C)C` [novobiocin] as the molecule, how does the IC50 (A. baumannii DNA gyrase) read?
Its IC50 is 2.17 ± 0.16 nM.

What about the MIC [6] of the same molecule?
Its MIC is 0.125 µg/mL.

What about the MIC [7] of the same molecule?
The MIC was 0.0312 µg/mL.
